Paper PMC9223764, “In Vitro Selection and Characterization of HIV-1 Variants with Increased Resistance to LP-40, Enfuvirtide-Based Lipopeptide Inhibitor” (International Journal of Molecular Sciences, 2022)
Where a SMILES comes first, the peptide text is derived from it. The star is where a group is joined. Palmitoyl = CCCCCCCCCCCCCCCC(=O)*

Assays:
Format in all cases: cell-based
[1] = test system: HIV-1 NL4-3 pseudovirus (WT); settings: Table 3; for Fold change in IC50: WT NL4-3 reference; for IC50: WT NL4-3, TZM-bl cells, 48 h, luciferase, means, triplicate, repeated three times
Procedure: (§1) The infectivity of HIV Env mutants and the inhibitory activities of membrane fusion inhibitors on mutants in TZM-bl cells were measured using a single-cycle infection assay as described previously. Briefly, the HIV pseudovirus was packed using an Env-coding plasmid, and pSG3ΔEnv was co-transfected into HEK293T cells. pSG3ΔEnv encodes an Env-defective, luciferase-expressing HIV-1 genome. After the pseudoviruses were harvested and filtrated, the amount of pseudoviruses was fixed via P24 antigen, and their infectivity was determined in TZM-bl cells. In order to measure the inhibitory activities of the inhibitors, inhibitors diluted serially 3-fold were mixed with an equal volume of pseudoviruses, and then 100 µL 1 × 10^5/mL TZM-bl cells were added to the mixture and incubated at 37 °C with 5% CO2 for 48 h. After that, TZM-bl cells were lysed using reporter lysis buffer, and IC50 values were calculated according to luciferase activity measured by luciferase assay reagents and a luminescence counter (Promega, Madison, WI, USA).

[2] = test system: HIV-1 NL4-3 gp41 I37T pseudovirus; settings: Table 3; for Fold change in IC50: I37T relative to WT NL4-3; for IC50: I37T, TZM-bl cells, 48 h, luciferase, means, triplicate, repeated three times
Procedure: (§2) Viral RNA was extracted from the supernatant, and, after reverse transcription, the cDNA was amplified using PCR. These amplified DNA were connected to the T-Easy vector and transformed to Trans 2-Blue Chemically Competent Cells. These sequences were determined via sequencing. The expression plasmids, which contained different HIV-1NL4-3 Env mutants, were constructed using DNA assembly (NEBuilder® HiFi DNA Assembly Master Mix). In brief, two primers were used to amplify Env, and the other two primers were used to amplify the vector fragment. The products of PCR were purified with a 20–25 bp overlap in the terminal of Env and the vector fragment Env and the vector fragment were added to the DNA assembly master mix at […] for 15 min and then transformed to Trans 2-Blue Chemically Competent Cells. Additionally, a single-point mutation was generated using double-stranded DNA templates and a selection of mutants with a restriction enzyme (DpnI) as described previously.
as §1

[3] = test system: HIV-1 NL4-3 gp41 I69V pseudovirus; settings: Table 3; for Fold change in IC50: I69V relative to WT NL4-3; for IC50: I69V, TZM-bl cells, 48 h, luciferase, means, triplicate, repeated three times
Procedure: as §2, §1

[4] = test system: HIV-1 NL4-3 gp41 L33S pseudovirus; settings: Table 3; for Fold change in IC50: L33S relative to WT NL4-3; for IC50: L33S, TZM-bl cells, 48 h, luciferase, means, triplicate, repeated three times
Procedure: as §2, §1

[5] = test system: HIV-1 NL4-3 gp41 L33S/I37T pseudovirus; settings: Table 3; for Fold change in IC50: L33S/I37T relative to WT NL4-3; for IC50: L33S/I37T, TZM-bl cells, 48 h, luciferase, means, triplicate, repeated three times
Procedure: (§3) We selected LP-40-induced drug resistance typical point mutations and combination mutation pseudoviruses to evaluate the current representative membrane fusion inhibitors.
as §1

[6] = test system: HIV-1 NL4-3 gp41 L33S/V38A/N42T pseudovirus; settings: Table 3; for Fold change in IC50: L33S/V38A/N42T relative to WT NL4-3; for IC50: L33S/V38A/N42T, TZM-bl cells, 48 h, luciferase, means, triplicate, repeated three times
Procedure: as §3, §1

[7] = test system: HIV-1 NL4-3 gp41 NDQEEDYN pseudovirus; settings: Table 3; for Fold change in IC50: NDQEEDYN relative to WT NL4-3; for IC50: NDQEEDYN (E109N, N113D, E119Q, D121E, N125E, S129D, H132Y, S133N), TZM-bl cells, 48 h, luciferase, means, triplicate, repeated three times
Procedure: as §3, §1

[8] = test system: HIV-1 NL4-3 gp41 NDQEEDYN/L33S/I37T pseudovirus; settings: Table 3; for Fold change in IC50: NDQEEDYN/L33S/I37T relative to WT NL4-3; for IC50: NDQEEDYN/L33S/I37T, TZM-bl cells, 48 h, luciferase, means, triplicate, repeated three times
Procedure: as §3, §1

[9] = test system: HIV-1 NL4-3 gp41 NDQEEDYN/L33S/V38A/N42T pseudovirus; settings: Table 3; for Fold change in IC50: NDQEEDYN/L33S/V38A/N42T relative to WT NL4-3; for IC50: NDQEEDYN/L33S/V38A/N42T, TZM-bl cells, 48 h, luciferase, means, triplicate, repeated three times
Procedure: as §3, §1

[10] = test system: HIV-1 NL4-3 gp41 V38A/N42T pseudovirus; settings: Table 3; for Fold change in IC50: V38A/N42T relative to WT NL4-3; for IC50: V38A/N42T, TZM-bl cells, 48 h, luciferase, means, triplicate, repeated three times
Procedure: as §3, §1

SMILES | Fold change in IC50 [1] | Fold change in IC50 [2] | Fold change in IC50 [3] | Fold change in IC50 [4] | Fold change in IC50 [5] | Fold change in IC50 [6] | Fold change in IC50 [7] | Fold change in IC50 [8] | Fold change in IC50 [9] | Fold change in IC50 [10] | IC50 [1] | IC50 [2] | IC50 [3] | IC50 [4] | IC50 [5] | IC50 [6] | IC50 [7] | IC50 [8] | IC50 [9] | IC50 [10]
CCCCCCCCCCCCCCCC(=O)NCCCC[C@H](NC(=O)[C@H](CC(C)C)NC(=O)[C@H](CC(C)C)NC(=O)[C@H](CCC(=O)O)NC(=O)[C@H](CCC(=O)O)NC(=O)[C@@H](NC(=O)[C@H](CCCCN)NC(=O)[C@H](CCCCN)NC(=O)[C@H](CCC(=O)O)NC(=O)[C@H](CC(C)C)NC(=O)[C@H](CCC(=O)O)NC(=O)[C@H](CCC(=O)O)NC(=O)[C@@H](NC(=O)[C@H](CCCCN)NC(=O)[C@H](CCCCN)NC(=O)[C@H](CCC(=O)O)NC(=O)[C@H](Cc1c[nH]c2ccccc12)NC(=O)[C@H](CCC(=O)O)NC(=O)[C@H](CCC(=O)O)NC(=O)[C@H](Cc1c[nH]c2ccccc12)NC(=O)[C@@H](NC(=O)[C@H](CCSC)NC(=O)[C@H](CCC(=O)O)NC(C)=O)[C@@H](C)O)C(C)C)[C@@H](C)CC)C(N)=O [LP-19] (Ac-EMTWEEWEKKVEELEKKIEELLK(Palmitoyl)-NH2) | 1.00 fold | 1.62 fold | 1.00 fold | 1.61 fold | 1.25 fold | 0.56 fold | 1.68 fold | 3.04 fold | 1.48 fold | 0.66 fold | – | – | – | – | – | – | – | – | – | –
CC[C@H](C)[C@H](NC(=O)[C@H](CCC(=O)O)NC(=O)[C@H](CCCNC(=N)N)NC(=O)[C@H](CCC(=O)O)NC(=O)[C@H](Cc1c[nH]c2ccccc12)NC(=O)[C@@H](NC(=O)[C@H](CCC(=O)O)NC(=O)[C@H](Cc1c[nH]c2ccccc12)NC(=O)[C@H](CO)NC(C)=O)[C@@H](C)O)C(=O)N[C@@H](CCC(=O)O)C(=O)N[C@@H](CC(N)=O)C(=O)N[C@@H](Cc1ccc(O)cc1)C(=O)N[C@H](C(=O)N[C@@H](CCCNC(=N)N)C(=O)N[C@@H](CCC(N)=O)C(=O)N[C@H](C(=O)N[C@@H](Cc1ccc(O)cc1)C(=O)N[C@@H](CCCNC(=N)N)C(=O)N[C@H](C(=O)N[C@@H](CC(C)C)C(=O)N[C@@H](CCC(=O)O)C(=O)N[C@@H](CCC(=O)O)C(=O)N[C@@H](CO)C(=O)N[C@@H](CCC(N)=O)C(=O)N[C@@H](CCC(=O)O)C(=O)N[C@@H](CCC(N)=O)C(=O)N[C@@H](CCC(N)=O)C(=O)N[C@@H](CC(=O)O)C(=O)N[C@@H](CCCNC(=N)N)C(=O)N[C@@H](CC(N)=O)C(=O)N[C@@H](CCC(=O)O)C(=O)N[C@@H](CCCNC(=N)N)C(=O)N[C@@H](CC(=O)O)C(=O)N[C@@H](CC(C)C)C(=O)N[C@@H](CC(C)C)C(=O)N[C@@H](CCC(=O)O)C(N)=O)[C@@H](C)CC)[C@@H](C)CC)[C@@H](C)O [SFT] (Ac-SWETWEREIENYTRQIYRILEESQEQQDRNERDLLE-NH2) | 1.00 fold | 7.21 fold | 1.07 fold | 3.00 fold | 14.72 fold | 166.68 fold | 5.15 fold | 70.71 fold | 473.54 fold | 74.48 fold | 1.56 nM | 11.2 nM | 1.67 nM | 4.67 nM | 23 nM | 260 nM | 8.03 nM | 110 nM | 739 nM | 116 nM
CC[C@H](C)[C@H](NC(=O)[C@H](CCC(N)=O)NC(=O)[C@H](C)NC(=O)[C@H](CCC(N)=O)NC(=O)[C@H](CCC(=O)O)NC(=O)[C@H](CC(C)C)NC(=O)[C@H](CC(C)C)NC(=O)[C@H](C)NC(=O)[C@@H](NC(=O)[C@@H](NC(=O)[C@H](CCCCN)NC(=O)[C@H](CCC(N)=O)NC(=O)[C@H](CCC(=O)O)NC(=O)[C@H](Cc1c[nH]c2ccccc12)NC(=O)[C@H](CCC(=O)O)NC(=O)[C@H](CCC(N)=O)NC(=O)[C@H](Cc1c[nH]c2ccccc12)NC(C)=O)[C@@H](C)CC)[C@@H](C)O)C(=O)N[C@@H](CCC(N)=O)C(=O)N[C@@H](CCC(N)=O)C(=O)N[C@@H](CCC(=O)O)C(=O)N[C@@H](CCCCN)C(=O)N[C@@H](CC(N)=O)C(=O)N[C@@H](CCC(=O)O)C(=O)N[C@@H](Cc1ccc(O)cc1)C(=O)N[C@@H](CCC(=O)O)C(=O)N[C@@H](CC(C)C)C(=O)N[C@@H](CCC(N)=O)C(=O)N[C@@H](CCCCN)C(=O)N[C@@H](CC(C)C)C(=O)N[C@@H](CC(=O)O)C(=O)N[C@@H](CCCCN)C(=O)N[C@@H](Cc1c[nH]c2ccccc12)C(=O)N[C@@H](C)C(=O)N[C@@H](CO)C(=O)N[C@@H](CC(C)C)C(=O)N[C@@H](Cc1c[nH]c2ccccc12)C(=O)N[C@@H](CCC(=O)O)C(=O)N[C@@H](Cc1c[nH]c2ccccc12)C(=O)N[C@@H](Cc1ccccc1)C(N)=O [T1249] | 1.00 fold | 1.21 fold | 0.82 fold | 11.41 fold | – | 227.04 fold | 0.94 fold | 145.54 fold | 301.12 fold | 23.77 fold | 1.14 nM | 1.38 nM | 0.93 nM | 13 nM | 81.5 nM | 259 nM | 1.07 nM | 166 nM | 343 nM | 27.1 nM
